Reference: US20230119068A1, “METHODS FOR RAPID SYNTHESIS OF PYRANOANTHOCYANINS” (Ohio State Innovation Foundation, priority 2020, published 2023)

Experiments:
[1] = Color expression of cis and trans isomers of acylated delphinidin at different pH; format: physicochemical; settings: for color expression: pH 4
Procedure: Delphinidin-3-(p-coumaroyl)-rutinoside-5-glucoside was extracted from Chinese eggplants, semi-purified and taken to 400 mg/L in methanol. Extract aliquots were placed in sealed quartz cuvettes, with the clear side facing up, and irradiated with different light sources (sunlight, D65 lamp, and UV chamber at 365 nm) for up to 112 hrs. Pigment isomerization was monitored over time on a uHPLC-PDA-MS/MS, using a pentafluorophenyl column and positive electrospray ionization on a triple quadrupole. Cis and trans-delphinidin-derivatives were isolated to compare their color stability and strength. Color was measured on a ColorQuest XE spectrophotometer, using 10° observer angle, illuminant D65, and total transmittance. Data was collected in triplicates and analyzed by two-way ANOVA.

[2] = test system: E. coli, S. aureus and B. cereus, and LAB; settings: compared with CA and FA; cited from earlier work

## Delphinidin-3-(p-coumaroyl)-rutinoside-5-glucoside [trans-delphinidin]
[1]
  color expression: bleached completely

## O=C(O)/C=C/c1ccc(O)cc1 [pCA, p-coumaric acid]
[2]
  antibacterial activity: stronger antibacterial activity

## Delphinidin-3-(p-coumaroyl)-rutinoside-5-glucoside [cis-delphinidin]
[1]
  color expression: noticeable color
[1]; pH 5
  color intensity: greater color intensity than the trans-isomer
